Columns and labels:
Assay type in all cases: in vivo
[1] = system: Myzus persicae; assay: Myzus persicae test (cabbage leaves, dip); conditions: cabbage leaves dipped; for Kill rate in % after 1 d, found: 4 ppm
From the text: (§1) The expected activity for a given combination of two active compounds can be calculated according to S. R. Colby, Weeds 15 (1967), 20-22) as follows:
(§2) If • X is the kill rate, expressed in % of the untreated control, when employing active compound A at an application rate of m g/ha or in a concentration of m ppm, • Y is the kill rate, expressed in % of the untreated control, when employing active compound B at an application rate of n g/ha or in a concentration of n ppm and • E is the kill rate, expressed in % of the untreated control, when employing active compounds A and B at application rates of m and n g/ha or in a concentration of m and n ppm, then
(§3) If the actual insecticidal kill rate is higher than the calculated one, the kill rates of the combination are superadditive, i.e. a synergistic effect is present. In this case, the kill rate that is actually observed has to be higher than the value, calculated using the formula above, for the expected kill rate (E).
(§4) To produce a suitable preparation of active compound, 1 part by weight of active compound is mixed with the stated amounts of solvent and emulsifier, and the concentrate is diluted with emulsifier-containing water to the desired concentration.
Cabbage leaves (Brassica oleracea) which are heavily infested by the green peach aphid (Myzus persicae) are treated by being dipped into the preparation of active compound of the desired concentration.
After the desired period of time, the kill in % is determined. 100% means that all aphids have been killed; 0% means that none of the aphids have been killed. The determined kill rates are entered into Colby's formula (see page 71).

[2] = system: Aphis gossypii; assay: Aphis gossypii test (cotton leaves, dip); conditions: cotton leaves dipped
From the text: as §1, §2, §3, §4
Cotton leaves (Gossypium hirsutum) heavily infested by the cotton aphid (Aphis gossypii) are treated by being dipped into the preparation of active compound of the desired concentration.
After the desired period of time, the kill in % is determined 100% means that all aphids have been killed; 0% means that none of the aphids have been killed. The determined kill rates are entered into Colby's formula (see page 71).

[3] = system: Tetranychus urticae; assay: Tetranychus urticae test (OP-resistent, dip application); conditions: bush beans dipped
From the text: as §1, §2, §3
To produce a suitable preparation of active compound, 1 part by weight of active compound is mixed with the stated amounts of solvent and emulsifier, and the concentrate is diluted with water to the desired concentrations. […]
After the desired period of time, the kill in % is determined. […]

SMILES: CCOC(=O)OC1=C(c2cc(C)ccc2C)C(=O)N[C@]12CC[C@@H](OC)CC2 [spirotetramat]
- Kill rate in % after 6 d, found ([1]; 0.8 ppm): 10%
- Kill rate in % after 6 d, found ([2]; 4 ppm): 15%
- Kill rate in % after 7 d, found ([3]; 0.8 ppm): 25%

SMILES: CNC(=O)c1cc(C#N)cc(C)c1NC(=O)c1cc(Br)nn1-c1ncccc1Cl [compound (5)]
- Kill rate in % after 6 d, found ([1]; 0.16 ppm): 5%
- Kill rate in % after 1 d, found [1]: 10%
- Kill rate in % after 6 d, found ([2]; 0.8 ppm): 45%
- Kill rate in % after 7 d, found ([3]; 0.16 ppm): 0%

SMILES: COCCOC(=O)C(C#N)(C(=O)c1ccccc1C(F)(F)F)c1ccc(C(C)(C)C)cc1 (stereo not drawn) [cyflumetofen]
- Kill rate in % after 6 d, found ([2]; 0.16 ppm): 0%

SMILES: Cc1nn(C)c(/C(OC(=O)C(C)(C)C)=C(\C#N)c2ccc(C(C)(C)C)cc2)c1C [cyenopyrafen]
- Kill rate in % after 1 d, found [1]: 0%

Source: patent US8993480B2, “Active ingredient combinations with insecticidal properties” (Bayer CropScience AG, priority 2006, dated 2015)
